The source of these data is patent publication US20250367330A1, “OPTICAL CLEARING ENABLED BY THE KRAMERS-KRONIG RELATION” (The Board of Trustees of the Leland Stanford Junior …, priority 2021, published 2025).

Data set [1] can be described thus: Screening of absorbing molecules for K-Klear by α, β and β/α spectra. In kind it is physicochemical.
Excerpt: (FIG. 3A) The relation between average molar absorption a and average molar n′ change β in the wavelength range between 500 to 700 nm for different molecules. (FIG. 3B) The ratio between the molar n′ change and molar absorption (β/α) for different absorbing molecules. The “white window” indicates a potential clearing spectrum with sufficient Δn′ and minimal absorption. (FIGS. 3C-3D) Imaginary part n″ (FIG. 3C) and real part n′ (FIG. 3D) of the RI of Dye-4 solutions at different concentrations measured from ellipsometry.
In practice, the agent should display a large absorption coefficient in order to realize the large, required changes in n′. […] At the same time, the agent should have minimal absorption at the wavelength for imaging, thus calling for a single narrow absorption peak without any additional absorption at longer wavelengths. In addition to these purely optical requirements, the agents also need to display a high solubility and diffusivity in water as well as excellent biocompatibility to facilitate in vivo application.
Data set [2] in a line: Ellipsometry measurement of solution refractive index and molar n′ change β. In kind it is physicochemical. As to the method:
A Horiba UVISEL ellipsometer was used to measure the real and imaginary parts of the refractive index of solutions at different concentrations of specific dye molecules. For solution measurement, 5 mL of solution was added to a shallow glass petri-dish (35×10 mm, Corning Falcon). The solution covers the entire bottom of the petri-dish creating a flat, reflective air-liquid interface. The reflected light was measured at an angle of 69.85° and the refractive index of the solution was calculated using a single interface semi-infinite reflection model. For all the measurements, 0.2 s integration time was used for each wavelength.
Measurements of the Molar n′ Change, β
The molar n′ change, β, is defined and measured according to the following quantitative relationship between the n′ and c (i.e., the concentration) of an aqueous solution containing dissolved clearing agents:
[formula] • where nw′ is the real RI of pure water, c is the molar concentration (M) of the clearing agent, and β is its molar n′ change. Note that n′, nw′, and β all have wavelength dependence. According to eq. (6), by measuring the n′(λ) of the solutions with ellipsometry, one can obtain β(λ) by fitting n′(λ) with c to a linear relationship.

Data set [3] is described as follows: UV-Vis absorption of dye solutions in water (molar absorption α, extinction coefficient). In kind it is physicochemical. Conditions: for absorption at wavelengths above 600 nm: aqueous solutions, b66: 1 mM to 1.0 M. An excerpt: A Thermo Fisher Scientific Evolution 350 UV-Vis spectrophotometer was used to measure the transmission and absorption spectra of dye solutions, silica phantoms, and ex-vivo chicken breast tissues. For all the measurements, 0.2 s acquisition time was used for each wavelength.
For transmission measurements of dye solutions, 1 mm optical path quartz cuvettes (high precision, two polished sides, Orient Analytics) were used and the cells were washed with aqua regia (mixture of 36.5-38.0 w/w % HCl and 68.0-70.0 w/w % HNO3 with a volume ratio of 3:1), fully rinsed with water and dried before use. A reference spectrum was acquired with water alone, thus correcting any loss of light due to intrinsic water absorption and reflection at the air-quartz interfaces.

Data set [4] has as its system mouse hindlimb skin. Nature of the data set: In vivo optical clearing of mouse hindlimb skin by topical gel, SHG sarcomere imaging. Set-up: species or system mice. The conditions noted are these: gel containing 0.62 M dye topically. An excerpt: Sarcomeres, basic contractile units of skeletal and cardiac muscles, were chosen as the targets for imaging owing to their central roles in muscle functions and implications in neuromuscular diseases (e.g., spinal muscular atrophy). Existing in vivo sarcomere imaging methods require the invasive implantation of microendoscopes inside the muscle tissue for imaging the second-harmonic generation (SHG) signals from myosin rods in the sarcomere. It was hypothesized that the need for an invasively implanted microendoscope can be alleviated by applying the K-Klear method to reduce the scattering in the skin. […] This average periodicity value between SHG-generating myosin rods agrees with the reported sarcomere lengths measured via an implanted microendoscope, thus confirming the ability of K-Klear to resolve microscopic features through cleared tissue. […]
(§1) Before each imaging experiment, the mice were weighed and anesthetized via intraperitoneal (i.p.) injection of a mixture of 16 mg/kg ketamine (Dechra Veterinary Products) and 0.2 mg/kg dexdomitor (Dexmedesed; Dechra Veterinary Products) by insulin syringes with a 30 G needle gauge. […] The hair over the mouse head was removed for the in-vivo fluorescence imaging at the mice head. The hair over the mouse hindlimbs was removed for in-vivo reflectance and fluorescence imaging at the hind limbs. […]

The conditions of data set [5]: EFSA conclusion; cited from earlier work.
Data set [6] can be described thus: Imaging of 1951 USAF resolution target through 1-mm scattering phantoms. The conditions noted are these: optimum K-Klear conditions.
Description: To this end, the resolvable spatial frequencies of a 1951 US Air Force (USAF) resolution target were quantified when imaging it through 1-mm scattering phantoms with different Dye-4 concentrations (FIGS. 5A-5B; FIGS. 14A-15E; see Example 7 for preparation of the phantom). The scattering phantom is placed between the objective lens and the USAF target, which is back illuminated with a white lamp (FIG. 16).
The hydrogel-silica scatter phantom in FIGS. 5A-5M was prepared by mixing the silica nanoparticle suspension (1 μm, 10 mg mL^−1) with low melting temperature agarose and Dye-4 of different amounts. The final concentration of agarose was 6 mg mL^−1. […] The mixture was then heated in an oven at 70° C. for at least 10 min to facilitate the dissolution of agarose. A 400-μL suspension was pipetted and injected into the well of a 1-mm silicone isolator (Grace bio-labs, Bend, Oregon, USA) mounted on a coverslip (24×40×0.15 mm, Fisher Scientific). The top of the solution was then sealed by another coverslip (22×22×0.15 mm, Thermo Scientific, Waltham, Massachusetts, USA) and the phantom was left at room temperature for slow solidification. […]
The subject of data set [7] is chicken breast tissue. Nature of the data set: Temporal evolution of transmittance during immersion, diffusion in chicken breast tissue.
Excerpt: (FIG. 19A) Temporal evolution of transmittance T at different wavelengths of a chicken breast tissue immersed in a 0.62 M solution of Dye-4. (FIG. 19B) Temporal evolution of normalized T at different wavelengths. T is normalized between 0 and 1 against minimum and maximum T for each wavelength. (FIG. 19C) Temporal evolution of normalized T averaged over measurements at all wavelengths in FIG. 19B, enabling the extraction of the diffusion constant by fitting the normalized T to
This tissue sample has a thickness of d=1.82 mm; therefore, the diffusion coefficient D of Dye-4 therein can be calculated as
For this reason, estimates of the diffusion rate of Dye-4 molecules can be made in chicken breast by tracking the temporal evolution of T during dye immersion (FIGS. 6F and 19A-19C). […] Using a dilute solution to achieve the same Δn′ and clearing effect benefits from a low viscosity of the clearing agent, thus promoting its diffusion kinetics.
For transmission measurements of chicken breast tissue, the tissue sample was first mounted on a microscope slide (precleaned, 12-550-15, Fisher Scientific), which was placed in the light path of the UV-Vis spectrometer to ensure that the entire incident beam is blocked by the tissue. For time-dependent transmission measurement, the tissue was cut to fit into a 1 cm optical path plastic cuvette (acrylic, 14-955-126, Fisher Scientific) while having sufficient area to completely block the incident light. 3 mL of Dye-4 solution was then slowly added to fully immerse the chicken breast tissue, before the cuvette was sealed by parafilm (Bemis Company, Inc., Neenah, Wisconsin, USA) to minimize water evaporation. The temperature of the cuvette was controlled between 25 and 30° C. during measurements.
The thickness of the tissue was measured by sandwiching the tissue between two coverslips (22×22×0.15 mm, Thermal Scientific) using a digital caliper (Mitutoyo). The transmission spectra of the tissue were measured by attaching the chicken breast tissue on a microscope slide (precleaned, Fisher Scientific).
Data set [8] concerns mouse scalp. Nature of the data set: In vivo optical clearing of mouse scalp by topical gel, laser speckle imaging of cerebral vessels. Conditions: gel containing 0.62 M dye, 785 nm. Set-up: species or system mice.
Excerpt: Given the successful clearing of scattering phantoms and chicken breasts using this approach, the possibility to achieve clearing in live animals was next explored. Procedures were developed to circumvent the destructive procedures or the use of toxic chemicals commonly used in ex vivo tissue clearing methods. […] It was hypothesized that owing to the small molecular weight and sufficiently large diffusion coefficient of Dye-4 in tissue, it can be delivered topically to optically clear the skin, thus exposing underlying structures that are otherwise obscured by the skin (FIG. 7A). […] The opacity of the scalp always requires its removal for fluorescence imaging of neuron activity or laser speckle imaging of cerebral hemodynamics in the mouse brain. […]
as §1

The subject of data set [9] is chicken breast tissue. Nature of the data set: Ex vivo K-Klear of chicken breast tissue, transmittance and attenuation coefficient. The conditions noted are these: immersion in 0.62 M solution, beyond 600 nm.
Excerpt: To gradually increase the n′ of the aqueous components in chicken breast, the tissue slices were sequentially immersed in solutions containing an increasing concentration of Dye-4 (FIG. 6A; see Example 7).
To verify this point, the Dye-4 concentration was varied in the last immersion step and measure T before and after dye immersion (FIGS. 6C and 18).
For transmission measurements of chicken breast tissue, the tissue sample was first mounted on a microscope slide (precleaned, 12-550-15, Fisher Scientific), which was placed in the light path of the UV-Vis spectrometer to ensure that the entire incident beam is blocked by the tissue. For time-dependent transmission measurement, the tissue was cut to fit into a 1 cm optical path plastic cuvette (acrylic, 14-955-126, Fisher Scientific) while having sufficient area to completely block the incident light. 3 mL of Dye-4 solution was then slowly added to fully immerse the chicken breast tissue, before the cuvette was sealed by parafilm (Bemis Company, Inc., Neenah, Wisconsin, USA) to minimize water evaporation. […]
The thickness of the tissue was measured by sandwiching the tissue between two coverslips (22×22×0.15 mm, Thermal Scientific) using a digital caliper (Mitutoyo). The transmission spectra of the tissue were measured by attaching the chicken breast tissue on a microscope slide (precleaned, Fisher Scientific). […]
For data set [10] the following is noted: when used as a clearing agent, reported; cited from earlier work.
Where [11] appears, read: wavelength 600 nm, aqueous solution.

Regarding `CC1(C)C(/C=C/C2=C(Cl)C(=C/C=C3\N(CCCCS(=O)(=O)[O-])c4ccccc4C3(C)C)/CCC2)=[N+](CCCCS(=O)(=O)[O-])c2ccccc21.[Na+]` [Dye-21, Sodium 4-[2-[2-[2-chloro-3-[2-[3,3-dimethyl-1-(4-sulfonato-butyl)indol-1-ium-2-yl]vinyl]cyclohex-2-en-1-ylidene]ethylidene]-3,3-dimethyl-indolin-1-yl]butane-1-sulfonate], the “potential for clearing from β/α spectrum” value in data set [1] (longer wavelengths / NIR spectrum) is “greatest potential”.
As to `OCC(O)CO` [Glycerol, reference compound], the “concentration needed to raise the baseline n′ of water to match that of lipids” value in data set [2] amounted to 11.6 M. The “Molar n′ change β” value in data set [2] (in the visible spectrum) and in data set [2] (wavelength 589.6 nm) was 0.0129 M⁻¹ in each case. The “molar absorption coefficient α” value in [3] was 0.012 M⁻¹.
For the compound `Cc1cc(=O)n(-c2ccccc2)n1C` [Antipyrine, reference compound], the “Molar n′ change β” value in data set [2] (setting [11]) stood at 0.037 ± 0.003 M⁻¹.
Take `O=C([O-])c1nn(-c2ccc(S(=O)(=O)[O-])cc2)c(O)c1/N=N/c1ccc(S(=O)(=O)[O-])cc1.[Na+].[Na+].[Na+]` [Dye-4, Trisodium 5-hydroxy-1-(4-sulfonato-phenyl)-4-[(E)-(4-sulfonato-phenyl)diazenyl]-1H-pyrazole-3-carboxylate]: the “characteristic periodicity (sarcomere length) identified through the skin window” value in [4] is on record as 2.60±0.28 μm. In addition, the “depth at which sarcomere structures are identified through the skin” value in data set [4] (1040 nm) was above 200 μm. For the same compound, in data set [5], the “dose with no adverse effects or systemic toxicity” value is on record as “up to 2 g per kg of body weight”. Moreover, the “β among candidates while maintaining low α” value in data set [1] (visible spectrum of 500-700 nm, 21 candidates) is given as “highest”. Besides, the “resolvable spatial frequency through 1-mm scattering phantom” value in [6] was “up to 228.1 lp mm^−1”. Further, the “time constant τ of normalized transmittance” value in [7] (0.62 M solution, tissue thickness 1.82 mm) was found to be 85.0 ± 1.2 min. In addition, the “time until transmission changes saturate” value in data set [7] (2-mm-thick chicken breast, 0.62 M solution) was in the range of 2 to 3 h. Further, in data set [7] (in chicken breast tissue, clearing solution), the diffusion coefficient is 0.66×10^−6 cm^2 s^−1. Also, in data set [2], the “β higher than that of molecules commonly used to raise the n′ of water” value was 2-3 orders of magnitude. In data set [2] (at 600 nm), the “efficiency in raising the n′ of water relative to glycerol on a per molar basis” value is recorded as 11 ×. In data set [2] (at a soluble concentration, ellipsometry), the “n′ of solution reachable” value was “up to 1.49”. Besides, the “Molar n′ change β” value in data set [2] (wavelength 500 nm, aqueous solution) came to 0.198 ± 0.005 M⁻¹; in data set [2] (setting [11]), 0.143 ± 0.004 M⁻¹; in data set [2] (wavelength 700 nm, aqueous solution) it was 0.128 ± 0.004 M⁻¹; in [2] (wavelength 800 nm, aqueous solution) it was 0.130 ± 0.008 M⁻¹. The “absorption at wavelengths above 600 nm” value in [3] is on record as “minimally absorbing”; in data set [3] (listed as tartrazine) it was “do not absorb”. This compound displayed a peak absorption wavelength in data set [3] (dissolved in water) of 428 nm. Moreover, the “laser speckle image through intact scalp after topical application” value in data set [8] was “clearly reveals vascular structures representative of cerebral vessels”. In addition, the “normalized attenuation coefficient relative to original tissue” value in [9] was “approximately 40%”.
Take `OC[C@H]1O[C@@](CO)(O[C@H]2O[C@H](CO)[C@@H](O)[C@H](O)[C@H]2O)[C@@H](O)[C@@H]1O` [Sucrose, reference compound]: the “required immersion time to achieve the same n′ increase” value in [7] (chicken breast) is on record as 24 h. Besides, the “Molar n′ change β” value in data set [2] (wavelength 589.6 nm) was 0.0462 M⁻¹.
Regarding `CC(O)CO` (stereo not shown) [Propylene glycol, reference compound], in data set [2] (wavelength 589.6 nm), the “Molar n′ change β” value was 0.0084 M⁻¹. Moreover, in data set [10], the diffusion coefficient is on record as 0.021×10^−6 cm^2 s^−1.
`[Cl-].[Na+]` [Sodium chloride, reference compound]: the “Molar n′ change β” value in data set [2] (wavelength 589 nm) was 0.00094 M⁻¹.
